Source: patent US11660280B2, “Treatment of drug resistant gliomas” (OKLAHOMA MEDICAL RESEARCH FOUNDATION, priority 2017, dated 2023)

Columns and labels:
[1] = system: LBP (lipopolysaccharide binding protein); experiment: LBP ELISA in tumor tissue and blood serum of G55 glioma-bearing mice; format: in vivo, mouse
Description: Lipopolysaccharide binding protein (LBP) ELISA assay. The LBP ELISA kit (Antibodies-Online.com; ABIN370808) is specific for mouse LBP levels in serum, plasma and tissue samples. This is a colorimetric assay that was read on a micro plate reader for measurement of absorbance at 450/620 nm. LBP concentrations were calculated from a standard curve and multiplied by appropriate dilution factors.

[2] = in vivo; cited from earlier work
Solubility in water = format: physicochemical; details: free acid
TGFβ1 = TGFβ1 protein levels (IHC, ELISA) in F98 gliomas; format: in vivo, rat
Description: Mice and Treatments. Animal studies were conducted in accordance to the OMRF IACUC (Institutional Animal Care and Use Committee) policies, which follow NIH guidelines. For the F98 rat glioma cell implantation model, F98 cells (10^5 in 10-μ1 volume) were intracerebrally implanted with a stereotaxic device (2 mm lateral and 2 mm anterior to the bregma, and at a 3 mm depth) in a total of 15 Fischer 344 rats (male 200-250 gm). The animals were divided into two groups once tumors reached 10-20 mm^3 in volume (as determined by MRI): OKN-007 treated (n=8) and untreated (UT) (n=7) groups. Rats were treated until tumors reached 200-250 mm^3 in volume or for a total of 4-6 weeks. For the G55 GBM cell implantation model, two-month-old male nude mice (Hsd:Athymic Nude-Foxnlnu mice; Harlan Inc., Indianapolis, IN) were implanted intracerebrally with human G55 xenograft cells (1×10^6) per mL suspended in 4 μL in cell culture media of 1% agarose solution. Once tumors reached 10-15 mm^3 (determined via MRI), mice were either treated daily with OKN-007 in the drinking water (150 mg/kg; 0.20% w/v for a 20 g mouse), or every 3 days with TMZ (30 mg/kg). OKN-007 was dissolved in water and made fresh every 2 days. Water bottles were weighed, and the amount of OKN-007 consumed per mouse was determined. […] The average intake of OKN-007 was approximately 140-150 mg/kg/day/mouse. […]

MGMT = experiment: RT-PCR gene-fold changes in human GBM cells; format: cell-based
Description: (§1) Quantification of mRNA by real-time quantitative RT-PCR for HIF-1a, MPG and MGMT. Total RNA from all cell lines with all treatments was purified with an RNeasy Mini Kit (Qiagen), and quantified by spectrophotometry (Nanodrop). cDNA was synthesized using SuperScript IV Reverse Transcriptase Kit (Invitrogen).
(§2) Target gene mRNA was amplified and measured by Bio-Rad CFX96™ Real Time System. Gene expression was determined using the SYBR Select Master Mix (Applied Biosystems). […] The reaction is characterized by the point during cycling when amplification of PCR products is first detected, rather than the amount of PCR product accumulated after a fixed number of cycles. The higher the starting quantity of the template, the earlier a significant increase in fluorescence is observed. The threshold cycle is defined as the fractional cycle number at which fluorescence passes a fixed threshold above the baseline. Fluorescence data were converted into cycle threshold measurements exported to Microsoft Excel. Glyceraldehyde-3-phosphatase dehydrogenase (GAPDH) mRNA expression levels were used as the quantitative internal control. For precise quantification, the mRNA expression level of each sample was normalized using the expression of the GAPDH gene.
(§3) All primers were synthesized by Integrated DNA Technologies. The primers used were: […]
(§4) were used to amplify 603-bp transcripts of MPG [9].

MPG = experiment: RT-PCR gene-fold changes in human GBM cells; format: cell-based
Description: as §1, §2, §3, §4

rat F98 gliomas = experiment: Microarray analysis of OKN-007-treated vs untreated rat F98 gliomas; format: in vivo
Description: Mice and Treatments. Animal studies were conducted in accordance to the OMRF IACUC (Institutional Animal Care and Use Committee) policies, which follow NIH guidelines. For the F98 rat glioma cell implantation model, F98 cells (10^5 in 10-μ1 volume) were intracerebrally implanted with a stereotaxic device (2 mm lateral and 2 mm anterior to the bregma, and at a 3 mm depth) in a total of 15 Fischer 344 rats (male 200-250 gm). The animals were divided into two groups once tumors reached 10-20 mm^3 in volume (as determined by MRI): OKN-007 treated (n=8) and untreated (UT) (n=7) groups. Rats were treated until tumors reached 200-250 mm^3 in volume or for a total of 4-6 weeks. For the G55 GBM cell implantation model, two-month-old male nude mice (Hsd:Athymic Nude-Foxnlnu mice; Harlan Inc., Indianapolis, IN) were implanted intracerebrally with human G55 xenograft cells (1×10^6) per mL suspended in 4 μL in cell culture media of 1% agarose solution. Once tumors reached 10-15 mm^3 (determined via MRI), mice were either treated daily with OKN-007 in the drinking water (150 mg/kg; 0.20% w/v for a 20 g mouse), or every 3 days with TMZ (30 mg/kg). OKN-007 was dissolved in water and made fresh every 2 days. Water bottles were weighed, and the amount of OKN-007 consumed per mouse was determined. […] The average intake of OKN-007 was approximately 140-150 mg/kg/day/mouse. TMZ was dissolved in 5% DMSO and 5% solutol-15 in sterile saline and administered via gavage. Mice were treated until the tumors reached 100-150 mm^3 or for a total of 4-6 weeks. All groups were stratified to ensure that tumor sizes were similar before initiation of treatment.
RNA isolation and preparation. For the rat F98 glioma study, all rats were euthanized after the last MRI examination. The brain of each animal was removed, and snap frozen in liquid nitrogen, before storage in a −80° C. freezer. Total RNA from all tumor tissues from all treatment groups was purified with an RNeasy Mini Kit (Qiagen), and quantified by spectrophotometry (Nanodrop). cDNA was synthesized using SuperScript IV Reverse Transcriptase Kit (Invitrogen).
Microarray analysis. The Illumina TotalPrepTM RNA Amplification Kit was used for labeling cRNA (Ambion, Austin, Tex.), as previously described (Griffins et al., 2009). Four×four treated/untreated samples were profiled using Affymetrix RaGene-1_0-st-v1 microarrays. Exon-level-summarized measures were quantile-normalized and tested for differential expression using Significance Analysis of Microarrays (SAM, [PMID: 11309499]) at a false discovery rate (FDR) <40% and […]. Functional enrichment analysis was performed using Ingenuity Pathways Analysis (IPA) (Ingenuity® Systems, world-wide-web at ingenuity.com).

[3] = tested in vivo; cited from earlier work
[4] = microarray, F98 gliomas, OKN treatment vs UT

CC(C)(C)[N+]([O-])=Cc1ccc(S(=O)(=O)O)cc1S(=O)(=O)O [OKN-007, 2,4-disulfonyl phenyl tert-butyl nitrone]
LBP levels in tumor tissues compared to UT mice [1]: significantly less | crossing of the blood brain barrier [2]: can readily cross the BBB | solubility in water (Solubility in water): greater than 1 gram/ml | TGFβ1 protein levels by immunohistochemistry compared to UT tumors (TGFβ1; F98 gliomas): substantially reduced | TGFβ1 protein expression by ELISA compared to UT tumors (TGFβ1; F98 tumor tissue lysates, p<0.001): significantly decreased | RT-PCR gene-fold change MGMT (MGMT; LN18 cells (TMZ-resistant), UT 1.06): 0.42 fold | RT-PCR gene-fold change MGMT (MGMT; T98 cells (TMZ-resistant), UT 1.00): 0.54 fold | RT-PCR gene-fold change MGMT (MGMT; U251 cells (TMZ-sensitive), UT 1.00): 1.22 fold | RT-PCR gene-fold change MPG (MPG; G55 cells (TMZ-resistant), UT 1.06): 4.52 fold | RT-PCR gene-fold change MPG (MPG; LN18 cells (TMZ-resistant), UT 1.00): 0.60 fold | RT-PCR gene-fold change MPG (MPG; LN229 cells (TMZ-sensitive), UT 1.10): 0.62 fold | RT-PCR gene-fold change MPG (MPG; T98 cells (TMZ-resistant), UT 1.10): 0.62 fold | RT-PCR gene-fold change MPG (MPG; U138 cells (TMZ-resistant), UT 1.13): 11.10 fold | RT-PCR gene-fold change MPG (MPG; U251 cells (TMZ-sensitive), UT 1.10): 0.81 fold | number of down-regulated genes with TGFβ1 as master (upstream) regulator (rat F98 gliomas; Upstream Regulator Analysis, IPA, rat F98 treated gliomas vs untreated tumors): 57 genes | TGFβ1 downregulation (rat F98 gliomas; microarray, F98 gliomas treated with OKN-007 vs UT): ~2 fold | number of genes upregulated (rat F98 gliomas; [4]): 3 genes | number of genes with at least one exon significantly downregulated (rat F98 gliomas; [4]): 384 genes | decrease in gene expression for LBP (rat F98 gliomas; microarray, rat F98 glioma model, treated vs untreated tumors): > 2 fold | efficacy as compared to PBN [3]: unexpected increase in efficacy | potency as compared to PBN [3]: increase in potency | toxicity as compared to PBN [3]: marked and highly significant decrease in toxicity
